In patent US4089965A, “Thiazolylphenylguanidines as antirhinovirus agents” (American Cyanamid Company, priority 1977, dated 1978):
Converted amounts (≈) assume the structure as drawn.

Columns and labels:
Coxsackievirus B-5 = assay: Plaque assay, minimal inhibitory concentration; assay type: cell-based; settings: HeLa Cells, inhibiting virus plaque formation by 50%
[1] = tested on: rhinoviruses and other picornaviruses, including coxsackie and poliovirus; assay type: cell-based
Rhinovirus strain 14 = assay: Protection of tissue from cytopathic effects (plaque inhibition, filter paper disc or agar overlay); settings: 33°, 3 to 5 days
Rhinovirus Serotype 23 = assay: Plaque assay, minimal inhibitory concentration; assay type: cell-based; settings: Enterovirus, inhibiting virus plaque formation by 50%
Rhinovirus strain 23 = assay: Protection of tissue from cytopathic effects (plaque inhibition, filter paper disc or agar overlay); settings: 33°, 3 to 5 days
Coxsackievirus A-15 = assay: Plaque assay, minimal inhibitory concentration; assay type: cell-based; settings: HeLa Cells, inhibiting virus plaque formation by 50%
Rhinovirus Serotype 32 = assay: Plaque assay, minimal inhibitory concentration; assay type: cell-based; settings: Enterovirus; HeLa Cells; inhibiting virus plaque formation by 50%
Rhinovirus Serotype 14 = assay: Plaque assay, minimal inhibitory concentration; assay type: cell-based; settings: Enterovirus; HeLa Cells; inhibiting virus plaque formation by 50%
rhinovirus 32 [2] = assay type: in vivo, human; settings: neutralization test, rhinovirus type 32
Rhinovirus Serotype 2 = assay: Plaque assay, minimal inhibitory concentration; assay type: cell-based; settings: Enterovirus, inhibiting virus plaque formation by 50%
Rhinovirus Serotype 1A = assay: Plaque assay, minimal inhibitory concentration; assay type: cell-based; settings: Enterovirus; HeLa Cells; inhibiting virus plaque formation by 50%
Rhinovirus Serotype 20 = assay: Plaque assay, minimal inhibitory concentration; assay type: cell-based; settings: Enterovirus; HeLa Cells; inhibiting virus plaque formation by 50%
Coxsackievirus B-1 = assay: Plaque assay, minimal inhibitory concentration; assay type: cell-based; settings: HeLa Cells, inhibiting virus plaque formation by 50%
Rhinovirus Serotype 52 = assay: Plaque assay, minimal inhibitory concentration; assay type: cell-based; settings: Enterovirus; HeLa Cells; inhibiting virus plaque formation by 50%
rhinoviruses = assay: Activity in three human epithelial cell lines; assay type: cell-based, rhinovirus; settings: Hela, L-132 and Detroit-6
Rhinovirus Serotype 12 = assay: Plaque assay, minimal inhibitory concentration; assay type: cell-based; settings: Enterovirus; HeLa Cells; inhibiting virus plaque formation by 50%
Poliovirus Type 1 = assay: microbe, parasite or virus in culture; assay type: cell-based; settings: Enterovirus C, HeLa, read-out: Minimal Inhibitory Concentration
Coxsackievirus A-5 = assay: Plaque assay, minimal inhibitory concentration; assay type: cell-based; settings: HeLa Cells, inhibiting virus plaque formation by 50%
Coxsackievirus A-21 = assay: Plaque assay, minimal inhibitory concentration; assay type: cell-based; settings: HeLa Cells, inhibiting virus plaque formation by 50%
Rhinovirus Serotype 5 = assay: Plaque assay, minimal inhibitory concentration; assay type: cell-based; settings: Enterovirus; HeLa Cells; inhibiting virus plaque formation by 50%
Coxsackievirus B-2 = assay: Plaque assay, minimal inhibitory concentration; assay type: cell-based; settings: HeLa Cells, inhibiting virus plaque formation by 50%
Coxsackievirus A-11 = assay: Plaque assay, minimal inhibitory concentration; assay type: cell-based; settings: HeLa Cells, inhibiting virus plaque formation by 50%
Rhinovirus Serotype 3 = assay: Plaque assay, minimal inhibitory concentration; assay type: cell-based; settings: Enterovirus; HeLa Cells; inhibiting virus plaque formation by 50%
rhinovirus 32 [3] = assay: Clinical challenge study, virus isolation from nasal washings; assay type: in vivo, human; settings: individual subjects on medication, intranasal; + or 0
Rhinovirus Serotype 1B = assay: Virus Yield Reduction Test; assay type: cell-based; settings: for Virus yield: HeLa
Rhinovirus Serotype 39 = assay: Plaque assay, minimal inhibitory concentration; assay type: cell-based; settings: Enterovirus; HeLa Cells; inhibiting virus plaque formation by 50%
Rhinovirus strain 5 = assay: Protection of tissue from cytopathic effects (plaque inhibition, filter paper disc or agar overlay); settings: 33°, 3 to 5 days
Coxsackievirus A-22 = assay: Plaque assay, minimal inhibitory concentration; assay type: cell-based; settings: HeLa Cells, inhibiting virus plaque formation by 50%
Rhinovirus Serotype 50 = assay: Plaque assay, minimal inhibitory concentration; assay type: cell-based; settings: Enterovirus; HeLa Cells; inhibiting virus plaque formation by 50%
Rhinovirus strain 2 = assay: Protection of tissue from cytopathic effects (plaque inhibition, filter paper disc or agar overlay); settings: 33°, 3 to 5 days
Rhinovirus Type 24 = assay: Viral sensitivity, filter disc method; assay type: cell-based; settings: strain 5146CV25; about 50 mcg per disc, HeLa
Protocol: (§1) In the test for viral sensitivity, by the filter disc method, 5 mg. of 1-(4-phenyl-2-thiazolyl)-3-phenylguanidine was dissolved in 1-2 drops of dimethylsulfoxide and 2.5 ml. of saline. Filter paper discs, when saturated with the solution, absorbed about 50 mcg. of the compound.
(§2) Sensitivity tests were performed by a modification of the method of Herrmann, et al., Proc. Soc. Exp. Biol. & Med., 103, 625 (1960). HeLa monolayers in 150 mm plastic dishes were infected with 1.0 ml. of rhinovirus suspension known to produce destruction of 80-90% of the cells in 4 to 5 days. Following viral adsorption, the cells were overlayed with 30 ml. of Eagle's minimum essential medium containing Noble agar at 0.5%, bovine fetal serum at 2.0%, diethylaminoethyl dextran at 100 mcg/ml. and magnesium chloride at 3 millimoles. Filter discs (1/4 inch Carl Schleicher and Schuell Co., No. 740E), containing about 50 mcg. of 1-(4-phenyl-2-thiazolyl)-3-phenylguanidine, were placed on the solidified surface and the culture plates incubated at 33° C. After 4 to 5 days, the overlay medium was decanted and the cells stained with 0.1% crystal violet in 20% ethanol. A zone of 10 mm or more in which at least two-thirds of the cells were protected from viral cytopathic effects, indicates antiviral activity. The following Table III lists 35 rhinovirus serotypes which were inhibited by this compound.

Rhinovirus Type 45 = assay: Viral sensitivity, filter disc method; assay type: cell-based; settings: strain Baylor 1; about 50 mcg per disc, HeLa
Protocol: as §1, §2

SMILES: N=C(Nc1ccccc1)Nc1nc(-c2ccccc2)cs1 [1-(4-phenyl-2-thiazolyl)-3-phenylguanidine]
- IC50 (Coxsackievirus B-5): 0.8 to 1.6 mg/L (≈ 2.72 to 5.44 µM)
- inhibition of virus growth ([1]; by inhibitory effects on virus plaque formation and virus yield): concentration-related inhibition
- activity against rhinoviruses and other picornaviruses ([1]; human cell cultures): active against a broad spectrum of rhinoviruses and other picornaviruses
- Protection of tissue from destruction by virus (Rhinovirus strain 14): +
- IC50 (Rhinovirus Serotype 23; L132, L-132 Cells): 0.4 to 0.8 mg/L (≈ 1.36 to 2.72 µM)
- IC50 (Rhinovirus Serotype 23; HeLa Cells): 0.2 to 0.4 mg/L (≈ 0.679 to 1.36 µM)
- Protection of tissue from destruction by virus (Rhinovirus strain 23): +
- IC50 (Coxsackievirus A-15): 1.6 to 3.1 mg/L (≈ 5.44 to 10.5 µM)
- IC50 (Rhinovirus Serotype 32): 0.4 mg/L (≈ 1.36 µM)
- IC50 (Rhinovirus Serotype 14): 0.8 to 1.6 mg/L (≈ 2.72 to 5.44 µM)
- antibody response of the treated subject who became clinically infected (rhinovirus 32 [2]): no antibody response
- IC50 (Rhinovirus Serotype 2; L132, L-132 Cells): 0.4 to 0.8 mg/L (≈ 1.36 to 2.72 µM)
- IC50 (Rhinovirus Serotype 2; Detroit-6 Cells): 0.4 mg/L (≈ 1.36 µM)
- IC50 (Rhinovirus Serotype 2; HeLa Cells): 0.4 to 0.8 mg/L (≈ 1.36 to 2.72 µM)
- IC50 (Rhinovirus Serotype 1A): 0.2 to 0.4 mg/L (≈ 0.679 to 1.36 µM)
- IC50 (Rhinovirus Serotype 20): 0.4 mg/L (≈ 1.36 µM)
- IC50 (Coxsackievirus B-1): 1.6 to 3.1 mg/L (≈ 5.44 to 10.5 µM)
- IC50 (Rhinovirus Serotype 52): 0.4 mg/L (≈ 1.36 µM)
- activity against rhinoviruses in three human epithelial cell lines (rhinoviruses): equally active
- IC50 (Rhinovirus Serotype 12): 0.2 to 0.4 mg/L (≈ 0.679 to 1.36 µM)
- IC50 (Poliovirus Type 1): 0.8 mg/L (≈ 2.72 µM)
- IC50 (Coxsackievirus A-5): 0.4 mg/L (≈ 1.36 µM)
- IC50 (Coxsackievirus A-21): 1.6 to 3.1 mg/L (≈ 5.44 to 10.5 µM)
- IC50 (Rhinovirus Serotype 5): 0.4 to 0.8 mg/L (≈ 1.36 to 2.72 µM)
- IC50 (Coxsackievirus B-2): 0.8 to 1.6 mg/L (≈ 2.72 to 5.44 µM)
- IC50 (Coxsackievirus A-11): 1.6 to 3.1 mg/L (≈ 5.44 to 10.5 µM)
- IC50 (Rhinovirus Serotype 3): 0.4 to 0.8 mg/L (≈ 1.36 to 2.72 µM)
- Virus Isolation From Nasal Washings (rhinovirus 32 [3]): 0
- suppression of virus yield (Rhinovirus Serotype 1B; 24 hours, cultures treated with 0.4 to 0.8 mcg/ml): 1-2 logs
- Virus yield (Rhinovirus Serotype 1B; 0.4 mcg/ml, 0 Hour to +6 Hour, 24 Hours, no drug 7.0): 5.2 Plaque-Forming Units/ml. (Log
- Virus yield (Rhinovirus Serotype 1B; 0.4 mcg/ml, 0 Hour to +6 Hour, 48 Hours, no drug 7.0): 5.8 Plaque-Forming Units/ml. (Log
- Virus yield (Rhinovirus Serotype 1B; 0.4 mcg/ml, +1 Hour to +7 Hour, 24 Hours, no drug 7.0): 6.4 Plaque-Forming Units/ml. (Log
- Virus yield (Rhinovirus Serotype 1B; 0.4 mcg/ml, +1 Hour to +7 Hour, 48 Hours, no drug 7.2): 7.1 Plaque-Forming Units/ml. (Log
- Virus yield (Rhinovirus Serotype 1B; 0.8 mcg/ml, 0 Hour to +6 Hour, 24 Hours, no drug 7.0): 5.7 Plaque-Forming Units/ml. (Log
- Virus yield (Rhinovirus Serotype 1B; 0.8 mcg/ml, 0 Hour to +6 Hour, 48 Hours, no drug 7.0): 6.3 Plaque-Forming Units/ml. (Log
- Virus yield (Rhinovirus Serotype 1B; 0.8 mcg/ml, +1 Hour to +7 Hour, 24 Hours, no drug 7.0): 6.0 Plaque-Forming Units/ml. (Log
- Virus yield (Rhinovirus Serotype 1B; 0.8 mcg/ml, +1 Hour to +7 Hour, 48 Hours, no drug 7.2): 7.4 Plaque-Forming Units/ml. (Log
- Virus yield (Rhinovirus Serotype 1B; 1.6 mcg/ml, 0 Hour to +6 Hour, 24 Hours, no drug 7.0): 5.5 Plaque-Forming Units/ml. (Log
- Virus yield (Rhinovirus Serotype 1B; 1.6 mcg/ml, 0 Hour to +6 Hour, 48 Hours, no drug 7.0): 6.2 Plaque-Forming Units/ml. (Log
- Virus yield (Rhinovirus Serotype 1B; 1.6 mcg/ml, +1 Hour to +7 Hour, 24 Hours, no drug 7.0): 5.4 Plaque-Forming Units/ml. (Log
- Virus yield (Rhinovirus Serotype 1B; 1.6 mcg/ml, +1 Hour to +7 Hour, 48 Hours, no drug 7.2): 6.6 Plaque-Forming Units/ml. (Log
- Virus yield (Rhinovirus Serotype 1B; 3.1 mcg/ml, 0 Hour to +6 Hour, 24 Hours, no drug 7.0): 5.5 Plaque-Forming Units/ml. (Log
- Virus yield (Rhinovirus Serotype 1B; 3.1 mcg/ml, 0 Hour to +6 Hour, 48 Hours, no drug 7.0): 6.1 Plaque-Forming Units/ml. (Log
- Virus yield (Rhinovirus Serotype 1B; 3.1 mcg/ml, +1 Hour to +7 Hour, 24 Hours, no drug 7.0): 4.7 Plaque-Forming Units/ml. (Log
- Virus yield (Rhinovirus Serotype 1B; 3.1 mcg/ml, +1 Hour to +7 Hour, 48 Hours, no drug 7.2): 6.3 Plaque-Forming Units/ml. (Log
- Virus yield (Rhinovirus Serotype 1B; 6.2 mcg/ml, 0 Hour to +6 Hour, 24 Hours, no drug 7.0): 5.8 Plaque-Forming Units/ml. (Log
- Virus yield (Rhinovirus Serotype 1B; 6.2 mcg/ml, 0 Hour to +6 Hour, 48 Hours, no drug 7.0): 6.1 Plaque-Forming Units/ml. (Log
- Virus yield (Rhinovirus Serotype 1B; 6.2 mcg/ml, +1 Hour to +7 Hour, 24 Hours, no drug 7.0): 4.5 Plaque-Forming Units/ml. (Log
- Virus yield (Rhinovirus Serotype 1B; 6.2 mcg/ml, +1 Hour to +7 Hour, 48 Hours, no drug 7.2): 5.6 Plaque-Forming Units/ml. (Log
- Virus yield (Rhinovirus Serotype 1B; 12.5 mcg/ml, +1 Hour to +7 Hour, 24 Hours, no drug 7.0): 3.8 Plaque-Forming Units/ml. (Log
- Virus yield (Rhinovirus Serotype 1B; 12.5 mcg/ml, +1 Hour to +7 Hour, 48 Hours, no drug 7.2): 5.2 Plaque-Forming Units/ml. (Log
- IC50 (Rhinovirus Serotype 39): 0.4 mg/L (≈ 1.36 µM)
- Protection of tissue from destruction by virus (Rhinovirus strain 5): +
- IC50 (Coxsackievirus A-22): 1.6 to 3.1 mg/L (≈ 5.44 to 10.5 µM)
- IC50 (Rhinovirus Serotype 50): 0.2 to 0.4 mg/L (≈ 0.679 to 1.36 µM)
- Protection of tissue from destruction by virus (Rhinovirus strain 2): +
- inhibition of rhinovirus serotype (zone of 10 mm or more) (Rhinovirus Type 24): inhibited
- inhibition of rhinovirus serotype (zone of 10 mm or more) (Rhinovirus Type 45): inhibited
